pIC50: −log10 of the molar value. Structures can show the parent of a compound that is named as a salt. Where two headings read alike, the source gives them in different places.
Tests used:
Escherichia coli = assay: Anti-bacterial activity, zone diameter; format: cell-based; conditions: for zone of inhibition at 50 µg/disc: read-out: Zone diameter given by 50 μg of drug
Description: (§1) The anti-bacterial activity of the compound HC274 according to the present invention was also compared with the activity of known anti-bacterial agents with the following results: […]

Klebsiella pneumoniac = assay: Anti-bacterial activity, zone diameter; format: cell-based; conditions: for zone of inhibition at 50 µg/disc: read-out: Zone diameter given by 50 μg of drug
Description: as §1

Nocardia asteroides = assay: Anti-bacterial activity, zone diameter; format: cell-based; conditions: for zone of inhibition at 50 µg/disc: read-out: Zone diameter given by 50 μg of drug
Description: as §1

Nocardia brasiliensis = assay: Anti-bacterial activity, zone diameter; format: cell-based; conditions: for zone of inhibition at 50 µg/disc: read-out: Zone diameter given by 50 μg of drug
Description: as §1

Proteus vulgaris = assay: Anti-bacterial activity, zone diameter; format: cell-based; conditions: for zone of inhibition at 50 µg/disc: read-out: Zone diameter given by 50 μg of drug
Description: as §1

Staphylococcus aureus = assay: Anti-bacterial activity, zone diameter; format: cell-based; conditions: for zone of inhibition at 50 µg/disc: read-out: Zone diameter given by 50 μg of drug
Description: as §1

Streptococcus pyrogenes = assay: Anti-bacterial activity, zone diameter; format: cell-based; conditions: for zone of inhibition at 50 µg/disc: read-out: Zone diameter given by 50 μg of drug
Description: as §1

pseudomonas aeruginosa = assay: Anti-bacterial activity, zone diameter; format: cell-based; conditions: for zone of inhibition at 50 µg/disc: read-out: Zone diameter given by 50 μg of drug
Description: as §1

C. albicans [1] = assay: Recovery of viable candida cells from the kidneys of infected mice (p.o. and i.v. treatment); format: in vivo; conditions: 25 mg/kg 1 h and 24 h after infection
Procedure: Mice receive 25×10^4 cells of C. albicans i.v. Treatments (25 mg/kg) administered in PEG/Dextrose 1 h and 24 h after infection. Animals sacrified 48 h after infection and kidneys excised, weighed, homogenized and decimal dilutions spread on glucose-peptone agar.

C. albicans [2] = assay: Vaginal candida infection in rats, oral or topical treatment; format: in vivo
Description: Effect of oral or topical administration of HC274 and ketoconazole on vaginal candida infection in rats. Clearance of C. albicans from rat vagina following oral or topical treatment (as percentage of control).
Topical treatment: 1% solution in polyethylene glycol administrated twice daily for 3 days.
Oral treatment: Once daily for 3 days.

[3] = system: Trichophyton mentagrophytes; assay: Experimental Trichophyton mentagrophytes infection in guinea pigs; format: in vivo
Description: Effect of oral or topical administration of HC274, HC344, Clotrimazole, and Ketoconazole on experimental Trichophyton mentagrophytes infection in guinea pigs.
*Based on degree of hair loss, erythema, desquamation, Max. = 100
Treatments administered in Carbopol® gel, once daily days 5-10.

candida albicans = assay: Oral treatment: recovery of viable candida albicans from the kidneys of infected mice; format: in vivo
Description: Effect of oral treatment with HC274, HC316, HC390, HC415 and Ketoconazole on the recovery of viable candida albicans from the kidneys of infected mice.

platelet aggregation = assay: Platelet aggregation after oral administration in the retired male breeder rat model; format: in vivo; conditions: read-out: ED50 (3 hr. post oral administration)
Description: HC 501 has also been evaluated for platelet aggregation 3 hrs. after oral administration in the retired male breeder rat model (R. N. Saunders et al, Lab. Anim. Sci., 1977, 27, 757).

candida = assay: Intravenous administration: recovery of viable candida cells from the kidneys of infected mice; format: in vivo; conditions: 25 mg/ml
[4] = system: platelet thromboxane generation; assay: Inhibition of platelet thromboxane generation (TxB2, collagen-stimulated human platelet rich plasma); format: cell-based; conditions: 10 min, collagen 8 μg/ml, human PRP, 10 min. incubation, 37° C., read-out: Activity IC50 (50% inhibition of TxB2 generation)
Procedure: The compounds used according to the invention as anti-thrombotics were tested by the following method for their ability to inhibit platelet thromboxane generation.
Human venous blood was collected from healthy male donors, who had denied any medication in the previous 14 days. Nine volumes of blood were mixed with one volume of 3.24% trisodium citrate. The citrated blood was centrifuged at 160 g for 10 mins. at 22° C. to obtain platelet rich plasma (PRP). The platelets were then counted on a Coulter counter, and the platelet count was adjusted to 200,000 per μl with plasma.
The PRP was then dispensed as aliquots into micro-Eppendorf tubes, maintained at 37° C. in a dry bath. The compounds dissolved either in saline, ethanol, or DMSO were added in duplicate to the PRP aliquots to produce final concentrations of 0.3, 3 and 30 μg/ml. When ethanol and DMSO were used as the vehicle, triplicate controls containing the same percentage of vehicle as the test compounds were made. The final concentration or organic solvent was never more than 0.1%, which in previous experiments had no effect on TxB2 generation.
Following a 10 min. incubation with test compounds or vehicle, collagen was added to produce a final concentration of 8 μg/ml. The tubes were then whirly-mixed for 15 seconds and replaced in the dry bath for a further 10 minutes, controls received saline instead of collagen. The reaction was then stopped by rapid centrifugation, 15,000 g for 3 mins. The plasma was removed and frozen at -29° C. until assayed.
Briefly, 100 μl aliquots, in tricine buffered saline+0.8% gelatin (pH 8.0) of the following were incubated together for 1 hour at 37° C.: thromboxane Tx B2 (plasma extract, spiked plasma extract or standards 20 to 20,000 pg/ml), ^3 H--TxB2 (approximately 15,000 dpm) and anti-TxB2 antiserum (0.5 μg/100 μl). The free and protein bound ^3 H--TxB2 were separated by ammonium sulphate precipitation followed by centrifugation. 300 μl of the supernatant was added to an aqueous scintillation fluid, and the radioactivity present was counted in a liquid scintillation counter. The binding of ^3 H--TxB2 in the absence of added TxB2 was approximately 55%. The least amount of TxB2 to be detected accurately in the plasma was 0.08 ng/ml. Cross reactivity with other prostaglandins is less than 0.005% except PGD2 which is 1%.
Thus plasma samples were assayed to give a rough approximation of TxB2 content. The plasma was then appropriately diluted and assayed in duplicate to give accurate values.
The amount of TxB2 generated by the collagen was calculated by subtracting mean values obtained for the saline stimulated platelets from the mean values obtained from the collagen stimulated platelets. Then the amount of TxB2 generated in the presence of each concentration of compound was expressed as a % control and dose response curves were then constructed to determine the concentration of compound which produced a 50% inhibition.

[5] = topical, 1% solution in polyethylene glycol twice daily for 3 days
[6] = topical, 1% w/w in Carbopol gel once daily days 5-10, day 10 after infection
[7] = topical, 1% w/w in Carbopol gel, day 5 after infection
[8] = oral, 3 hr, retired male breeder rat

Compound `CCn1cc(C(=O)O)c(=O)c2ccc(C)nc21` [NA, Nalidixic Acid] has a zone of inhibition at 50 µg/disc (Escherichia coli) of 18 mm, a zone of inhibition at 50 µg/disc (Klebsiella pneumoniac; Klebsiella) of 21 mm and a zone of inhibition at 50 µg/disc (Nocardia asteroides) of 0 mm. It also gave a zone of inhibition at 50 µg/disc (Nocardia brasiliensis) of 7 mm, a zone of inhibition at 50 µg/disc (Proteus vulgaris) of 25 mm and a zone of inhibition at 50 µg/disc (Staphylococcus aureus) of 9 mm. The zone of inhibition at 50 µg/disc (Streptococcus pyrogenes; Streptococcus) was 0 mm and the zone of inhibition at 50 µg/disc (pseudomonas aeruginosa; Pseudomonas aeruginosa) was 7 mm.

For `Clc1ccc(COC(Cn2ccnc2)c2ccc(Cl)cc2Cl)c(Cl)c1` (stereo not drawn) [Miconazole, 1-[2-(2,4-Dichlorophenyl)-2-[(2,4-dichlorophenyl)methoxy]ethyl]-1H-imidazole], the “No. of CFU/g kidney at 48 h” value (C. albicans [1]; i.v.) was 9 × 10^2 CFU/g kidney, the “No. of CFU/g kidney at 48 h” value (C. albicans [1]; p.o.) was 1.4 × 10^3 CFU/g kidney and the LD50 at 168 h (in vivo; mouse, in vivo, iv, male mice, 7 day, read-out: LD50) was 80 mg/kg. The LD12.5 (in vivo; p.o., male mice, 7 day) was greater than 500 mg/kg.

With `Clc1ccccc1C(c1ccccc1)(c1ccccc1)n1ccnc1` [Clotrimazole, 1-(2-Chlorophenyl)diphenylmethyl-1H-imidazole, reference compound] the “Clearance of C. albicans from rat vagina (as percentage of control)” value (shortened to “Clearance … (as percentage of control)”) (C. albicans [2]; [5]) was 100 percentage of control, the “Disease rating (degree of hair loss, erythema, desquamation, Max. = 100)” value [3, 6] was 51.9 and the “Disease rating (degree of hair loss, erythema, desquamation, Max. = 100)” value [3, 7] was 100. It also gave an LD50 at 168 h (in vivo; mouse, in vivo, iv) of 10 mg/kg and an LD12.5 (in vivo; p.o., male mice, 7 day) of 500 mg/kg.

For `Cl.Fc1c(F)c(F)c(N/N=C(\Cn2ccnc2)c2ccc(Cl)cc2)c(F)c1F` [HC415, (Z)-1-(4-chlorophenyl)-2-(1H-imidazol-1-yl)ethanone, 2,3,4,5,6-pentafluorophenylhydrazone hydrochloride], the “Recovery of C.albicans (as percentage of control)” value (candida albicans; 5 mg/kg) was 14.0 percentage of control and the “Recovery of C.albicans (as percentage of control)” value (candida albicans; 20 mg/kg) was 17.2 percentage of control.

For `Clc1ccc(/C(Cn2ccnc2)=N/Nc2c(Cl)cccc2Cl)cc1` [HC344, (Z)-1-(4-chlorophenyl)-2-(1H-imidazol-1-yl) ethanone, 2,6-dichlorophenylhydrazone, hydrochloride], the “Disease rating (degree of hair loss, erythema, desquamation, Max. = 100)” value [3, 6] was 24.6, the “Disease rating (degree of hair loss, erythema, desquamation, Max. = 100)” value [3, 7] was 100 and the LD50 at 168 h (in vivo; mouse, in vivo, ip, male mice, 7 day, read-out: LD50) was 780 mg/kg. For the same compound, the LD12.5 (in vivo; p.o., male mice, 7 day) was greater than 1500 mg/kg.

`CC1(C)S[C@@H]2[C@H](NC(=O)[C@H](N)c3ccccc3)C(=O)N2[C@H]1C(=O)O` [AMP, Ampicillin] showed a zone of inhibition at 50 µg/disc (Escherichia coli; 50 μg) of 17 mm, a zone of inhibition at 50 µg/disc (Klebsiella pneumoniac; 50 μg, Klebsiella pneumoniac) of 11 mm and a zone of inhibition at 50 µg/disc (Nocardia asteroides; 50 μg) of 38 mm. It also gave a zone of inhibition at 50 µg/disc (Nocardia brasiliensis; 50 μg) of 38 mm, a zone of inhibition at 50 µg/disc (Proteus vulgaris; 50 μg) of 28 mm and a zone of inhibition at 50 µg/disc (Staphylococcus aureus; 50 μg) of 21 mm. For the same compound, the zone of inhibition at 50 µg/disc (Streptococcus pyrogenes; 50 μg, Streptococcus pyrogenes) was 25 mm and the zone of inhibition at 50 µg/disc (pseudomonas aeruginosa; 50 μg, pseudomonas aeruginosa) was 0 mm.

In the case of `O=C1C(CC[S+]([O-])c2ccccc2)C(=O)N(c2ccccc2)N1c1ccccc1` (stereo not drawn) [Sulfinpyrazone], the ED50 (platelet aggregation; [8]) was 4.1 mg/kg.

In the case of `OCCN(CCO)c1nc(N2CCCCC2)c2nc(N(CCO)CCO)nc(N3CCCCC3)c2n1` [Dipyridamide, 2,2',2",2"',[(4,8Di-1-piperidinyl-pyrimido]5,4d[pyrimidine2,6-diyl)dinitrlo] tetrakisethanol], the ED50 (platelet aggregation; [8]) was 6.8 mg/kg.

In the case of `CC(=O)N1CCN(c2ccc(OCC3COC(Cn4ccnc4)(c4ccc(Cl)cc4Cl)O3)cc2)CC1` (stereo not drawn) [Ketoconazole, cis-1-Acetyl-4-[4-[[2-(2,4-dichlorophenyl)-2-(1H-imidazol-1-yl-methyl)-1,3-dioxolan-4-yl]methoxy]piperazine, reference compound], the “Recovery of C.albicans (as percentage of control)” value (candida albicans; 5 mg/kg) was 51.0 percentage of control, the “Recovery of C.albicans (as percentage of control)” value (candida albicans; 20 mg/kg) was 11.7 percentage of control and the “Clearance … (as percentage of control)” value (C. albicans [2]; oral, 10 mg/kg once daily for 3 days) was 99.9 percentage of control. The “Clearance … (as percentage of control)” value (C. albicans [2]; [5]) was 99.9 percentage of control, the “Disease rating (degree of hair loss, erythema, desquamation, Max. = 100)” value ([3]; 20 mg/kg p.o., day 5 after infection) was 100 and the “Disease rating (degree of hair loss, erythema, desquamation, Max. = 100)” value ([3]; 20 mg/kg p.o., day 10 after infection) was 63.7. For the same compound, the “Disease rating (degree of hair loss, erythema, desquamation, Max. = 100)” value [3, 6] was 56.4 and the “Disease rating (degree of hair loss, erythema, desquamation, Max. = 100)” value [3, 7] was 100.

With `Clc1ccc(C(Cn2ccnc2)OCc2ccsc2Cl)c(Cl)c1` (stereo not drawn) [Tioconazole, 1-[2-[(2-Chloro-3-thienyl)methoxy]-2-(2,4-dichlorophenyl)ethyl]-1H-imidazole] the “No. of CFU/g kidney at 48 h” value (C. albicans [1]; i.v.) was 1.2 × 10^3 CFU/g kidney, the “No. of CFU/g kidney at 48 h” value (C. albicans [1]; p.o.) was 2.2 × 10^3 CFU/g kidney and the CFU/g kidney (candida) was 8.1 × 10^3 CFU/g kidney. For the same compound, the “CFU/g kidney, % of control” value (candida) was 55 % of control and the LD12.5 (in vivo; mouse, in vivo, po) was greater than 500 mg/kg.

With Polymyxin [PM] the “Zone diameter given by 50 μg of drug” value (Escherichia coli; 50 μg) was 10 MM, the “Zone diameter given by 50 μg of drug” value (Klebsiella pneumoniac; 50 μg, Klebsiella pneumoniac) was 10 MM and the “Zone diameter given by 50 μg of drug” value (Nocardia asteroides; 50 μg) was 11 MM. The “Zone diameter given by 50 μg of drug” value (Nocardia brasiliensis; 50 μg) was 0 MM, the “Zone diameter given by 50 μg of drug” value (Proteus vulgaris; 50 μg) was 12 MM and the “Zone diameter given by 50 μg of drug” value (Staphylococcus aureus; 50 μg) was 7 MM. The “Zone diameter given by 50 μg of drug” value (Streptococcus pyrogenes; 50 μg, Streptococcus pyrogenes) was 0 MM and the “Zone diameter given by 50 μg of drug” value (pseudomonas aeruginosa; 50 μg, pseudomonas aeruginosa) was 10 MM.

For `Clc1ccc(/C(Cn2ccnc2)=N/Nc2ccccc2Cl)cc1` [HC 501, (Z)-1-(4-chlorophenyl)-2-(1H-imidazol-1-yl)ethanone,2-chlorophenylhydrazone, hydrochloride], the pIC50 [4] was greater than 6.11 and the ED50 (platelet aggregation; [8]) was 0.003 mg/kg.

For `CC(=O)Oc1ccccc1C(=O)O` [Aspirin, 2(Acetyloxy)benzoic acid], the ED50 (platelet aggregation; Rattus norvegicus, po, 3 h) was 7.7 mg/kg.
